Experimental findings from US20230139883A1, “Peptides for Inducing Differentiation” (Shimadzu Corporation, priority 2020, published 2023) are described below.

In the test the test system is FGFR1. Description: Phage display selection against FGFR1 with Miseq analysis of the bound phages. Type of test: binding. To be noted: for 1 nM Num. of reads: phage library after panning Round 5, bound to 1 nM FGFR1; for 10 nM Num. of reads: phage library after panning Round 5, bound to 10 nM FGFR1; for 100 nM Num. of reads: phage library after panning Round 5, bound to 100 nM FGFR1; for 1 nM Ranking / 10 nM Ranking / 100 nM Ranking: rank by number of reads; for 1 nM Ranking: 1 nM FGFR1; for 10 nM Ranking: 10 nM FGFR1; for 100 nM Ranking: 100 nM FGFR1. As for the experimental part: The collected phage library was mixed with 100 nM of FGFR3 solution and allowed to react overnight at 4° C. (Table 5: Panning Round 1). After the reaction, the binding phages were captured by magnetic beads modified with protein A, and washed three times with PBS-T, followed by eluting the bound phages with Gly-HCl (pH 2.0). After neutralizing with 2M Tris, the phages were infected to E. coli. After 4 hours of incubation, helper phages were added, and the E. coli were allowed to produce phages overnight. Next, phage solution was prepared from the culture supernatant. The prepared phage solution was mixed with FGFR3 solution and allowed to react overnight at 4° C. (Table 5: Panning Round 2). After the reaction, the bound phages were eluted. Phage solution prepared in the same way was mixed with FGFR3 solution and allowed to react at 4° C. for 1 hour (Table 5: Panning Round 3). After the reaction, the bound phages were eluted. This operation was repeated two more times, and after Panning Round 5, the bound phages were eluted. Note that as the rounds proceeded, the number of washes with PBS-T was increased. (Table 5). The titer of the Output phage in each round was also determined. The titer of phage was determined from the number of colonies obtained by incubating the E. coli TG1 strain contacted with the phage at 37° C. overnight. As shown in FIG. 3<Input phage (Round 5)>, the eluted phage library after panning was subjected to Human IgG Fc-immobilized plate, and negative selection was performed by collecting unbound phages. The phage library was then acted to FGFR1 prepared to concentrations of 100 nM, 10 nM, and 1 nM. Bound phages were then collected. The phagemid DNA of the collected phages was extracted, samples were prepared according to Illumina's protocol for Miseq, and a comprehensive analysis of the phagemid DNA was performed. Among the sequences obtained, 23 sequences with high incidence rates were selected (Table 6).

Take “CAAELAALEAELAALEGVPALVGQEGGKLVLLKWKLWRLKNAC [100n36]”: the “1 nM Num. of reads” value is reported as 483, the “10 nM Num. of reads” value was 677, the “100 nM Num. of reads” value stood at 398 and the “1 nM Ranking” value is 24. The “10 nM Ranking” value amounted to 24 and the “100 nM Ranking” value worked out at 28.
In the case of “CAAELAALEAELAALEGREPSGAMGSGKLKRLKYKLQNLKHAC [100n1793]”, the “1 nM Num. of reads” value was 493, the “10 nM Num. of reads” value is 493, the “100 nM Num. of reads” value was 395 and the “1 nM Ranking” value is 23. The “10 nM Ranking” value was 29 and the “100 nM Ranking” value came out at 29.
On to “CAAELAALEAELAALEGSVALGNKAGGKLRLLKLKLELLKDAC [100n1314]”, for which the “1 nM Num. of reads” value amounted to 260, the “10 nM Num. of reads” value is reported as 406, the “100 nM Num. of reads” value came to 238 and the “1 nM Ranking” value worked out at 34. Besides, the “10 nM Ranking” value is on record as 31 and the “100 nM Ranking” value is 38.
Turning to “CAAELAALEAELAALEGAKKAEEGQKGKLYRLKNKLHYLKSAC [100n423]”, the “1 nM Num. of reads” value stood at 561, the “10 nM Num. of reads” value is on record as 867, the “100 nM Num. of reads” value is recorded as 439 and the “1 nM Ranking” value was 21. Also, the “10 nM Ranking” value stood at 19 and the “100 nM Ranking” value was 26.
For “CAAELAALEAELAALEGLGGFFNLRTGKLDELKMKLQHLKQAC [100n84]”, the “1 nM Num. of reads” value is 795, the “10 nM Num. of reads” value was determined as 854, the “100 nM Num. of reads” value stood at 563 and the “1 nM Ranking” value worked out at 15. Moreover, the “10 nM Ranking” value is reported as 20 and the “100 nM Ranking” value came to 19.
Consider “CAAELAALEAELAALEGQTFMNPHRLGKLDKLKLKLVHLKRAC [100n8]”, for which the “1 nM Num. of reads” value is 4243, the “10 nM Num. of reads” value is 3717, the “100 nM Num. of reads” value stood at 1974 and the “1 nM Ranking” value was 7. The “10 nM Ranking” value was 7 and the “100 nM Ranking” value amounted to 8.
For “CAAELAALEAELAALEGVKELTLGTVGKLMSLKYKLWSLKQAC [100n83]”, the “1 nM Num. of reads” value is 4939, the “10 nM Num. of reads” value is recorded as 6581, the “100 nM Num. of reads” value is on record as 3079 and the “1 nM Ranking” value was 5. For the same sequence, the “10 nM Ranking” value was 5 and the “100 nM Ranking” value is listed as 6.
In the case of “CAAELAALEAELAALEGAWVEQVNRRGKLDGLKMKLQRLKLAC [100n51]”, the “1 nM Num. of reads” value came out at 704, the “10 nM Num. of reads” value is recorded as 1000, the “100 nM Num. of reads” value is given as 649 and the “1 nM Ranking” value is reported as 19. For the same sequence, the “10 nM Ranking” value came out at 16 and the “100 nM Ranking” value came out at 16.
Consider “CAAELAALDAELAALEGARLGKMSKVGKLIKLKEKLQNLKMAC [100n182]”, for which the “1 nM Num. of reads” value is reported as 1428, the “10 nM Num. of reads” value is listed as 1468, the “100 nM Num. of reads” value stood at 937 and the “1 nM Ranking” value was 10. Also, the “10 nM Ranking” value came out at 12 and the “100 nM Ranking” value is reported as 13.
Turning to “CAAELAALEAELAALEGDCLAGGCSFGKLLNLKQKLIRLKRAC [100n108]”, the “1 nM Num. of reads” value was 873, the “10 nM Num. of reads” value is recorded as 1155, the “100 nM Num. of reads” value is recorded as 464 and the “1 nM Ranking” value is 13. Moreover, the “10 nM Ranking” value came out at 14 and the “100 nM Ranking” value came out at 22.
On to “CAAELAALEAELAALEGSSMDHVAYTGKLRMLKFRLELLKGAC [100n1543]”, for which the “1 nM Num. of reads” value is 233, the “10 nM Num. of reads” value was found to be 276, the “100 nM Num. of reads” value came out at 216 and the “1 nM Ranking” value was found to be 37. For the same sequence, the “10 nM Ranking” value was 43 and the “100 nM Ranking” value was determined as 43.
As to “CAAELAALEAELAALEGINAVPMSGRGKLYSLKNKLHYLKNAC [100n12]”, the “1 nM Num. of reads” value came out at 273, the “10 nM Num. of reads” value is 267, the “100 nM Num. of reads” value worked out at 258 and the “1 nM Ranking” value is 30. The “10 nM Ranking” value came to 46 and the “100 nM Ranking” value stood at 34.
For the sequence “CAAELAALEAELAALEGADAFTLGSAGKLMMLKEKLNHLKHAC [100n1348]”, the “1 nM Num. of reads” value came to 349, the “10 nM Num. of reads” value is 473, the “100 nM Num. of reads” value is listed as 346 and the “1 nM Ranking” value stood at 27. Also, the “10 nM Ranking” value was found to be 30 and the “100 nM Ranking” value is given as 30.
With “CAAELAALEAELAALEGGDEVPHVGGGKLKMLKYQLNNLKHAC [100n417]”, the “1 nM Num. of reads” value was determined as 721, the “10 nM Num. of reads” value is on record as 1010, the “100 nM Num. of reads” value is listed as 762 and the “1 nM Ranking” value turned out to be 18. Also, the “10 nM Ranking” value is listed as 15 and the “100 nM Ranking” value turned out to be 14.
As for “CAAELAALEAELAALEGAVGDKRKSKGKLMMLKQKLELLKGAC [100n85]”, the “1 nM Num. of reads” value is listed as 6769, the “10 nM Num. of reads” value amounted to 9230, the “100 nM Num. of reads” value is 7482 and the “1 nM Ranking” value is reported as 2. Further, the “10 nM Ranking” value is on record as 2 and the “100 nM Ranking” value is 2.
As to “CAAELAALEAELAALEGGMATDHMNRGKLYRLKNKLHFLKIAC [100n781]”, the “1 nM Num. of reads” value was 352, the “10 nM Num. of reads” value is recorded as 262, the “100 nM Num. of reads” value is reported as 228 and the “1 nM Ranking” value came out at 26. The “10 nM Ranking” value was determined as 48 and the “100 nM Ranking” value was found to be 40.
On to “CAAELAALEAELAALEGFGGVVYSCEWQAVYLKYKLMRLKQAC [100n17]”, for which the “1 nM Num. of reads” value is on record as 8443, the “10 nM Num. of reads” value was 10095, the “100 nM Num. of reads” value was 8500 and the “1 nM Ranking” value turned out to be 1. Further, the “10 nM Ranking” value is 1 and the “100 nM Ranking” value amounted to 1.
Take “CAAELAALEAELAALEGGRFSGLQEKGKLYGLKNKLHYLKRAC [100n368]”: the “1 nM Num. of reads” value was determined as 2077, the “10 nM Num. of reads” value amounted to 2177, the “100 nM Num. of reads” value was found to be 1695 and the “1 nM Ranking” value was 8. For the same sequence, the “10 nM Ranking” value is recorded as 9 and the “100 nM Ranking” value was 11.
On to “CAAELAALEAELAALEGVGRLYHMASGKLDRLKGKLMVLKYAC [100n82]”, for which the “1 nM Num. of reads” value came to 6561, the “10 nM Num. of reads” value was found to be 7109, the “100 nM Num. of reads” value is 4896 and the “1 nM Ranking” value was 3. For the same sequence, the “10 nM Ranking” value stood at 4 and the “100 nM Ranking” value was 5.
As to “CAAELAALEAELAALEGPHPRHHHPHGKLKKLKRKLYKLKQAC [100n222]”, the “1 nM Num. of reads” value was found to be 525, the “10 nM Num. of reads” value is listed as 776, the “100 nM Num. of reads” value is on record as 541 and the “1 nM Ranking” value was 22. Besides, the “10 nM Ranking” value is 22 and the “100 nM Ranking” value is 20.
Regarding “CAAELAALEAELAALEGMSNHTLGSIGKLMLLKDKLESLKEAC [100n1074]”, the “1 nM Num. of reads” value turned out to be 756, the “10 nM Num. of reads” value is on record as 688, the “100 nM Num. of reads” value came to 333 and the “1 nM Ranking” value is 16. Moreover, the “10 nM Ranking” value was 23 and the “100 nM Ranking” value was determined as 31.
As to “CAAELAALEAELAALEGNTANDPTASGKLKYLKYKLSNLKHAC [100n606]”, the “1 nM Num. of reads” value was determined as 872, the “10 nM Num. of reads” value came to 894, the “100 nM Num. of reads” value is 609 and the “1 nM Ranking” value was determined as 14. The “10 nM Ranking” value is listed as 18 and the “100 nM Ranking” value is reported as 18.
